Experimental data from US20050130989A1, “N-arylheteroaromatic products compositions containing them and use thereof” (Aventis Pharma S. A., priority 2003, published 2005).
Counter-ions that a name gives are not always drawn.

Tests used:
tubulin = target: T1, tubulin (Sus scrofa, UniProt P02550+P02554); assay: Evaluation of the inhibition of tubulin polymerization (turbidimetry); format: biochemical, pig; details: tubulin 10 μm (1 mg/ml), 37° C., turbidity at 350 nm; concentration that inhibits the rate of polymerization by 50%; read-out: Inhibition of tubulin polymerization IC 50 (μm)
T1 construct: Tubulin is purified from pig brain according to published methods; from tissue; host or cells: pig brain
Description: Tubulin is purified from pig brain according to published methods (Shelanski et al., 1973, Proc. Natl. Acad. Sci. USA, 70, 765-768. Weingarten et al., 1975, Proc. Natl. Acad. Sci. USA, 72, 1858-1862). Briefly, the brains are ground and centrifuged in an extraction buffer. The tubulin contained in the supernatant of the extract undergoes two successive cycles of polymerization at 37° C. and depolymerization at 4° C., before being separated from the MAPs (Microtubule Associated Proteins) by chromatography on a phosphocellulose P11 column (Whatman). The tubulin thus isolated is more than 95% pure. It is stored in a buffer known as RB/2 30% glycerol, the composition of which is 50 mM MES-NaOH [2-(N-morpholino)ethanesulfonic acid], pH 6.8; 0.25 mM MgCl2; 0.5 mM EGTA; 30% glycerol (v/v), 0.2 mM GTP (guanosine-5′-triphosphate).
The polymerization of tubulin to microtubules is monitored by turbidimetry as follows: the tubulin is adjusted to a concentration of 10 μm (1 mg/ml) in RB/2 30% glycerol buffer to which 1 mM GTP and 6 mM MgCl2 are added. The polymerization is triggered by an increase in temperature from 6° C. to 37° C. in a cuvette with an optical path length of 1 cm, placed in a UVIKON 931 spectrophotometer (Kontron) equipped with a thermostatically maintained cuvette holder. The increase in the turbidity of the solution is monitored at 350 nm.
The products are dissolved at 10 mM in DMSO and added at variable concentrations (0.5 to 10 μm) to the tubulin solution before polymerization. The IC50 value is defined as the concentration of product that inhibits the rate of polymerization by 50%.

HCT116 cells = assay: Inhibition of proliferation of the human colon tumor line HCT116 ([14C]-thymidine incorporation); format: cell-based; details: Homo sapiens, HCT-116, 48 h, 48 hours at 37° C., read-out: Inhibition of HCT116 proliferation IC 50 (μm)
Description: The proliferation of HCT116 cells is evaluated by measuring the incorporation of [^14C]-thymidine in the following manner. The HCT 116 cells (obtained from the ATCC) are cultured in a DMEM medium (Gibco) containing 10% fetal calf serum and antibiotics (1% penicillin, 1% streptomycin). To perform the proliferation test, the cells are inoculated in cytostar 96-well microplates (Amersham), at a rate of 5000 cells per well. [^14C]-thymidine (0.1 μCi/well) and the products to be evaluated are then added. Variable concentrations of products up to 10 μm are used; the DMSO (solvent used to dissolve the products) should not exceed 0.5% in the medium. 48 hours after incubation at 37° C., the radioactivity incorporated into the cells is measured by counting the plate in a TRI-LUX counter (Wallac). The IC50 is defined as the concentration of product that reduces the radioactivity by 50% compared with an untreated control. A product whose IC50 is less than 3 μm is considered cytotoxic.

T1 sequence (P02550 whole entry): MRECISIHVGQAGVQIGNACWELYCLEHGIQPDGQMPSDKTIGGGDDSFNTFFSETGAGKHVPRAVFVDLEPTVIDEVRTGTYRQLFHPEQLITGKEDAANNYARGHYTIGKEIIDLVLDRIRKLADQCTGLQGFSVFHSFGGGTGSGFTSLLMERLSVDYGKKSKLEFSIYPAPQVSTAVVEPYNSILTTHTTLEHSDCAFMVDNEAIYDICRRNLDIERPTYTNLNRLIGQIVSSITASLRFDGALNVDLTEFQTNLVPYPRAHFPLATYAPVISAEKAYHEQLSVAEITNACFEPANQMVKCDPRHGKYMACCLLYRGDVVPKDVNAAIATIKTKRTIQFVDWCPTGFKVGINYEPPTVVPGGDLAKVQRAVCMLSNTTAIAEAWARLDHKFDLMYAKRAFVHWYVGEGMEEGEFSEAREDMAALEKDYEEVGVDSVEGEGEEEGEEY
T1 sequence (P02554 whole entry): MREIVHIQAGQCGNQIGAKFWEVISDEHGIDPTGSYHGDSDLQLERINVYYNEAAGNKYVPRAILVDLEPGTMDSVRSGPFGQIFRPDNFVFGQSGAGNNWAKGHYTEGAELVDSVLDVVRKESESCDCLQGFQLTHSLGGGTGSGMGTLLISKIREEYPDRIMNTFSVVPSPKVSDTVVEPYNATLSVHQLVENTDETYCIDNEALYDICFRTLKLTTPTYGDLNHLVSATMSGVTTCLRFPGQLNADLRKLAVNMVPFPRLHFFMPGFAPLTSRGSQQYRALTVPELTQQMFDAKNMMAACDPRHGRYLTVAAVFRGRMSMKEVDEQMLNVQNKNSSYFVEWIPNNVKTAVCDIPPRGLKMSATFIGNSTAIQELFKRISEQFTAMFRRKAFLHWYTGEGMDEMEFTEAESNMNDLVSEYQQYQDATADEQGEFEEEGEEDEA

IC50 (tubulin)	IC50 (HCT116 cells)	Compound
0.99 µM	0.0069 µM	COc1cc(OC)cc(N2CCN(C(=O)c3cc(CO)nn3-c3ccccc3)CC2)c1 [Example E73, [4-(3,5-Dimethoxyphenyl)piperazin-1-yl](3-hydroxymethyl-1-phenyl-1H-pyrazol-5-yl)methanone]
1.7 µM	0.0106 µM	O=C(c1cc(Br)nn1-c1ccccc1)N1CCN(c2cccc(Cl)c2)CC1 [Example E65, (5-Bromo-2-phenyl-2H-pyrazol-3-yl)[4-(3-chlorophenyl)piperazin-1-yl]-methanone]
2.2 µM	1.04 µM	Cc1cc(C(=O)N2CCN(c3cc(Cl)c(Br)cc3Br)CC2)n(-c2ccccc2)n1 [Example E79, [4-(2,4-Dibromo-5-chlorophenyl)piperazin-1-yl](5-methyl-2-phenyl-2H-pyrazol-3-yl)methanone]
2.5 µM	0.0719 µM	Cc1cc(C(=O)N2CCN(c3cccc(C(C)O)c3)CC2)n(-c2ccccc2)n1 (stereo not shown) [Example E39, {4-[3-(1-Hydroxyethyl)phenyl]piperazin-1-yl}(5-methyl-2-phenyl-2H-pyrazol-3-yl)methanone hydrochloride]
1.7 µM	0.312 µM	Cc1cc(C(=O)N2CCN(c3cccc(-c4ccccc4)c3)CC2)n(-c2ccccc2)n1 [Example E24, [4-(Biphenyl-3-yl)piperazin-1-yl)(5-methyl-2-phenyl-2H-pyrazol-3-yl)methanone]
2.3 µM	0.237 µM	O=C(c1cc(-c2cccnc2)nn1-c1ccccc1)N1CCN(c2cccc(Cl)c2)CC1 [Example E67, [4-(3-Chlorophenyl)piperazin-1-yl][2-phenyl-5-(pyrid-3-yl)-2H-pyrazol-3-yl]methanone]
0.7 µM	0.0267 µM	Cc1cc(C(=O)N2CCN(c3cc(Cl)ccc3Br)CC2)n(-c2ccccc2)n1 [Example E77, [4-(2-Bromo-5-chlorophenyl)piperazin-1-yl](5-methyl-2-phenyl-2H-pyrazol-3-yl)methanone]
10 µM	0.142 µM	COc1cc(OC)cc(N2CCN(C(=O)c3cc(N4CCC(O)C4)nn3-c3ccccc3)CC2)c1 (stereo not shown) [Example E106, [4-(3,5-Dimethoxyphenyl)piperazin-1-yl][5-(3-hydroxypyrrolidin-1-yl)-2-phenyl-2H-pyrazol-3-yl]methanone]
1 µM	0.0142 µM	Cc1cc(C(=O)N2CCN(c3cccc(O)c3)CC2)n(-c2ccccc2)n1 [Example E13, [4-(3-Hydroxyphenyl)piperazin-1-yl](5-methyl-2-phenyl-2H-pyrazol-3-yl)-methanone]
1 µM	0.0105 µM	COc1cc(OC)cc(N2CCN(C(=O)c3cc(-c4ccc[nH]4)nn3-c3ccccc3)CC2)c1 [Example E91, [4-(3,5-Dimethoxyphenyl)piperazin-1-yl][2-phenyl-5-(1H-pyrrol-2-yl)-2H-pyrazol-3-yl]methanone]
1.73 µM	0.0188 µM	COc1cc(OC)cc(N2CCN(C(=O)c3cc(-c4ccoc4)nn3-c3ccccc3)CC2)c1 [Example E90, [4-(3,5-Dimethoxyphenyl)piperazin-1-yl][5-(furan-3-yl)-2-phenyl-2H-pyrazol-3-yl]methanone]
1.39 µM	0.181 µM	COc1cc(OC)cc(N2CCN(C(=O)c3cc(-c4ccsc4)nn3-c3ccccc3)CC2)c1 [Example E85, [4-(3,5-Dimethoxyphenyl)piperazin-1-yl][2-phenyl-5-(thiophen-3-yl)-2H-pyrazol-3-yl]methanone]
11.4 µM	0.0733 µM	COc1cc(OC)cc(N2CCN(C(=O)c3cc(N4CCOCC4)nn3-c3ccccc3)CC2)c1 [Example E96, [4-(3,5-Dimethoxyphenyl)piperazin-1-yl][5-(morpholin-4-yl)-2-phenyl-2H-pyrazol-3-yl]methanone]
3.1 µM	0.513 µM	Cc1cc(C(=O)N2CCN(c3cccc(NCc4ccccc4)c3)CC2)n(-c2ccccc2)n1 [Example E32, [4-(3-Phenylmethylaminophenyl)piperazin-1-yl](5-methyl-2-phenyl-2H-pyrazol-3-yl)methanone hydrochloride]
14.5 µM	1.24 µM	O=C(c1cccn1-c1ccccc1)N1CCN(c2cccnc2)CC1 [Example E46, (1-Phenyl-1H-pyrrol-2-yl)[4-(pyrid-3-yl)piperazin-1-yl]methanone hydrochloride]
1.26 µM	1.28 µM	COc1cc(OC)cc(N2CCN(C(=O)c3cc(/C=C/c4ccc(F)cc4)nn3-c3ccccc3)CC2)c1 [Example E87, [4-(3,5-Dimethoxyphenyl)piperazin-1-yl]-{5-[E-2-(4-fluorophenyl)vinyl]-2-phenyl-2H-pyrazol-3-yl}methanone]

The remaining lines, values behind:

Compound	IC50 (tubulin)	IC50 (HCT116 cells)
Cc1cc(C(=O)N2CCN(c3cccc(Cl)c3)CC2)n(-c2cccc(Cl)c2)n1 [3/34]	2.5 µM	0.526 µM
Cc1cc(C(=O)N2CCN(c3cccc(Cl)c3)CC2)n(-c2ccccc2F)n1 [3/37]	20 µM	1.44 µM
Cc1cc(C(=O)N2CCN(c3ccccc3)CC2)n(-c2ccc(F)cc2)n1 [3/101]	5 µM	0.569 µM
CCc1ccccc1N1CCN(C(=O)c2cc(C)nn2-c2cccc(OC)c2)CC1 [3/136]	12.5 µM	0.932 µM
Cc1cccc(N2CCN(C(=O)c3cc(C)nn3-c3ccccc3)CC2)c1 [3/11]	3 µM	0.036 µM
Cc1cc(C(=O)N2CCN(c3ccccc3C(F)(F)F)CC2)n(-c2ccccc2)n1 [3/84]	5.5 µM	0.176 µM
Cc1cc(C(=O)N2CCN(c3ccc(F)cc3)CC2)n(-c2ccccc2)n1 [3/41]	6.5 µM	0.294 µM
Cc1cc(C(=O)N2CCN(c3ccccc3C(F)(F)F)CC2)n(-c2ccccc2F)n1 [3/145]	10 µM	1.51 µM
COc1ccc(Cl)cc1N1CCN(C(=O)c2cc(C)nn2-c2ccccc2)CC1 [3/83]	1.5 µM	0.0066 µM
Cc1cc(C(=O)N2CCN(c3ccccc3C)CC2)n(-c2cccc(Cl)c2)n1 [3/67]	2.7 µM	0.127 µM
CSc1ccccc1N1CCN(C(=O)c2cc(C)nn2-c2cccc(C)c2)CC1 [3/51]	2 µM	0.037 µM
Cc1cccc(-n2nc(C)cc2C(=O)N2CCN(c3ccc4c(c3)OCCO4)CC2)c1 [3/56]	5 µM	0.139 µM
Cc1cccc(N2CCN(C(=O)c3cc(C)nn3-c3cccc(Cl)c3)CC2)c1 [3/123]	3.3 µM	0.051 µM
COc1cccc(N2CCN(C(=O)c3cc(C)nn3-c3ccc(C)cc3)CC2)c1 [3/80]	5 µM	0.078 µM
Cc1cc(C(=O)N2CCN(c3ccccc3Cl)CC2)n(-c2ccccc2)n1 [3/112]	15 µM	1.52 µM
Cc1cc(C(=O)N2CCN(c3cccc(Cl)c3Cl)CC2)n(-c2ccc(F)cc2)n1 [3/119]	3.1 µM	0.562 µM
Cc1cccc(N2CCN(C(=O)c3cc(C)nn3-c3ccc(F)cc3)CC2)c1 [3/57]	1.4 µM	0.015 µM
COc1cccc(-n2nc(C)cc2C(=O)N2CCN(c3cccc(C(F)(F)F)c3)CC2)c1 [3/133]	6.2 µM	0.214 µM
Cc1cc(C(=O)N2CCN(c3ccccc3C)CC2)n(-c2ccc(F)cc2)n1 [3/147]	7 µM	1.29 µM
